Experimental data taken from patent publication US20070122830A1, “Prohibitin-directed diagnostics and therapeutics for cancer and chemotherapeutic drug resistance” (Aurelium BioPharma Inc., priority 2005, published 2007).

Tested on: prohibitin
Assay: Prohibitin silencing by siRNA in MDA cells, anti-prohibitin immunoblot
Assay type: cell-based, human
Details: for decrease in prohibitin expression: MDA cell lines
Experimental: Cell extracts from drug-resistant and drug-sensitive cell lines were prepared to determine the expression levels of potential therapeutic targets in drug-resistant cells. Briefly, cultured cells were rinsed 2 times with 15 ml of 1× phosphate buffered saline (“PBS”), and harvested by trypsinization. Cells were collected in a 15 ml tube by centrifugation at 1000 rpm for 5 min. The supernatant was discarded and cells were washed 3 times with 1×PBS. The cell pellet was transferred to an Eppendorf tube and […] of 1×PBS were added. Cells were centrifuged 5 min. at 3000 rpm in an Eppendorf Microfuge. The supernatant was removed and cells were then lysed in […] of lysis buffer (50 mM Tris, pH 7.5, 150 mM NaCl, 1% NP-40, 0.5% sodium deoxycholate), containing protease inhibitors ([…], […] benzamidine, 0.2 mM PMSF) and incubated 5 min. on ice. The cell lysates were then centrifuged at 14,000×g for 10 min. at 4° C. The protein concentration of the supernatants was determined by the DC Protein assay (BioRad, Hercules, Calif.). Samples were subsequently stored at −80° C. until ready for analysis.
Total cell lysates were thawed and then incubated with 1 U/ml DNAse I (New England BioLabs, Inc., Beverly, Mass.), 5 mM MgCl2 (final concentration) for 2 hours on ice. Their protein concentration was determined using the RC DC protein assay kit from BIORAD according to manufacturer's instructions (BioRad Laboratories, Hercules, Calif.) (see also Lowry et al., (1951) J. Biol. Chem. 193: 265-275). Equivalent amounts of proteins ([…]) from total cell extracts from sensitive (MCF7, MDA-MB-231) and chemotherapeutic drug-resistant cells (MCF7/AR and MDA-MB-231/AR) were analyzed by polyacrylamide gel electrophoresis followed by blotting to a nitrocellulose membrane. The membrane was subsequently contacted with an anti-prohibitin antibody obtained from Abcam, Inc., Cambridge, Mass. The immunoblots were incubated with an anti-IgG secondary antibody and visualized using horseradish peroxidase using the manufacturer's protocol (Bio-Rad Laboratories, Hercules, Calif.).
To establish the importance of prohibitin to the expression of the drug-resistant phenotype in MDA cell lines, prohibitin expression was silenced using RNAi. Briefly, the following siRNA duplexes targeting the human prohibitin mRNA were designed and purchased either from Ambion (Austin, Tex.) or Invitrogen (Carlsbad, Calif.). […]
The siRNA duplex was predesigned, synthesized with 3′TT overhangs, purified and annealed by Ambion (Austin, Tex.). […] Transfection efficiencies were typically evaluated 24-48 hrs post transfection using a fluorescence microscope. […]

Substance: prohibitin siRNA: siRNA duplex to human prohibitin mRNA nt 425-443; sense 5′-GGAAGUGGUCUGUCUGUUAtt-3′, antisense 5′-UAACAGACAGACCACUUCCtt-3′ (sense GGAAGUGGUCUGUCUGUUATT; antisense UAACAGACAGACCACUUCCTT; chemistry not given here)
- decrease in prohibitin expression (four days post-treatment, FIG. 2): 43%
- decrease in prohibitin expression (fourth day after treatment, FIG. 3): 58%
- decrease in prohibitin expression (two days post-treatment, FIG. 2): 79%
- additional decrease in prohibitin expression compared to mock silencing (MDA cells, FIG. 5): 60%
